# Experiments:
# left motor cortex = experiment: Inactivation of the motor cortex by muscimol microinjection in overground-trained SCI rats; format: in vivo, rat; conditions: overground-trained rats with T7/T10 staggered hemisections; intra-cortical microinjection into left motor cortex (800 nl, 4.5 mg/Kg); p<0.01; functionality of lumbosacral circuits uncompromised
# Protocol: (§1) To ablate T8-T9 neurons, we infused NMDA (1% in dH2O) into 14 sites (depth 1 mm, total volume 3 μl) covering spinal levels T8-T9. Rats were tested 5 days post-lesion, and sacrificed on the following day. The ablation of neurons was verified post mortem on tissue sections stained with mouse anti-NeuN (1:500, Chemicon, USA) antibodies. To inactivate the motor cortex, we injected the GABA-agonist muscimol intra-cortically (800 nl, 4.5 mg/Kg). Five days prior to experiments, we stereotaxically implanted a catheter (OD: 0.61 mm, ID: 0.28 mm) into the left motor cortex at a depth of 1.5 mm. Proper catheter location was verified post mortem on tissue sections stained (Invitrogen, USA) for fluorescent Nissl visualization.
# Contrary to primates, the rodent motor cortex is not essential to produce locomotion (G. Courtine et al., Can experiments in nonhuman primates expedite the translation of treatments for spinal cord injury in humans? Nature medicine 13, 561 (May, 2007)). […] First, we implanted stimulating epidural electrodes over the left motor cortex to verify that the reorganization of neuronal pathways re-established connectivity across the lesion. […] Second, we implanted a microwire array in the vicinity of CST neurons projecting to T8-T9 segments, and recorded neuronal modulations during voluntary locomotion in overground-trained rats (n=3). […]
# T8-T9 neurons = experiment: Ablation of T8-T9 neurons by NMDA infusion in overground-trained SCI rats; format: in vivo, rat; conditions: overground-trained rats with T7/T10 staggered hemisections, NMDA 1% in dH2O into 14 sites, tested 5 days post-lesion, p<0.01, functionality of lumbosacral circuits uncompromised
# Protocol: as §1
# Anatomical examinations highlighted an extensive remodelling of supraspinal and intraspinal projections in rats that regained voluntary locomotion. We first conducted retrograde tract tracing from L1-L2 locomotor centers. We found a significant increase (p<0.01) in the number of labeled neurons in intermediate and ventral laminae of T8-T9 segments in both overground-trained and treadmill-trained rats compared to non-trained animals. Analysis of the activity-dependent marker cfos after continuous overground locomotion confirmed that the labeled neurons were active during walking. […]
Structure (SMILES),effect on voluntary hindlimb locomotion (left motor cortex),effect on regained voluntary locomotion (T8-T9 neurons)
"NCc1cc(=O)[nH]o1 [Muscimol, muscimol]",immediately suppressed voluntary hindlimb locomotion,–
"CN[C@H](CC(=O)O)C(=O)O [NMDA, N-methyl-D-aspartic acid]",–,abolished the regained voluntary locomotion

# Reference: patent US10391015B2, “Apparatus and method for restoring voluntary control of locomotion in neuromotor impairments” (ECOLE POLYTECHNIQUE FEDERALE DE LAUSANNE (EPFL), priority 2012, dated 2019)
